Assay results taken from PubChem BioAssay AID1918932 (Molecular Pharmacology Branch, DTP, NCI, 2023).
Where “and” joins values, the source holds several entries; their conditions need not be identical. Equal entries are not always repeated.

System: 171881-019-R-J1-PDC complex spheroid viability
Assay: Anticancer human tumor 171881-019-R-J1-PDC patient-derived invasive breast carcinoma cell line growth inhibition
Settings: for viability, T/C: stronger effect = lower value
From the text: Multicellular complex tumor spheroid response to LSD1 Inhibitor Iadademstat in combination with a variety of drugs and investigational agents in selected tumor cell lines
The current study was undertaken to assess response to LSD1 inhibitors in combination with standard-of-care drugs and investigational agents in solid tumor complex spheroid models as well as in the K-562 leukemia. Complex spheroids include a stromal component modeled by human endothelial cells (HUVEC) and fibroblasts modeled by human mesenchymal stem cells (MSCs). The concentration ranges selected for each drug and investigational agent were based upon clinically achievable concentrations if the clinical Cmax of the agent was known.
Compounds. The drugs and investigational agents used in this study are listed on Table 1. All of the agents used, including staurosporine (NSC755774) and gemcitabine (NSC613327), were obtained from the Developmental Therapeutics Program, NCI. FDA-approved anticancer drugs are available from the NCI at http://dtp.nci.nih.gov/branches/dscb/oncology_drugset_explanation.html. Drugs and investigational agents were >95% pure by proton nuclear magnetic resonance (NMR) and liquid chromatography/mass spectrometry (LC/MS). Stock solutions were prepared at 400x in DMSO, stored at -70 degrees C, and diluted in fresh medium prior to their use. The final concentration of DMSO in cell culture wells never exceeded 0.25% (v/v). The FDA-approved anticancer drug set is available from the Developmental Therapeutics Program at https://dtp.cancer.gov/organization/dscb/obtaining/available_plates.htm. All drugs and investigational agents were tested over a range starting from a high concentration at or near the clinical Cmax and decreasing in half-log increments. If the clinical Cmax for an agent had not been determined, the highest concentration tested was 10 microM.
Cell Lines. The patient-derived cancer cell (PDC) lines: 292921-168-R-J2-PDC, K24384-001-R-PDC, and 521955-158-R2-J5-PDC pancreatic carcinomas, 556581-035-R-J1 ovarian carcinoma, 324938-238-R-J1-PDC, 855422-203-R-J1-PDC and 883617-216-R-J1-PDC urothelial bladder carcinomas, 743489-274-T-PDC renal cell carcinoma, 138582-R-J1 Merkel cell tumor, K60290-347-R-J1 and K57222-313-R-J1-PDC glioblastomas, 653999-131-R-J2-PDC, LG0703-F948-PDC, and 349418-098-R-PDC non-small cell lung carcinomas, 885512-296-R-J2-PDC, 171881-019-R-J1-PDC breast carcinomas and 186277-243-T-J2-PDC and 233499-124-R-J2-PDC colon carcinomas were obtained from the NCI Patient-Derived Models Repository (PDMR, https://pdmr.cancer.gov). The established cell lines NCI/ADR-RES (RRID:CVCL_14520 and OVCAR-5 (RRID:CVCL_1628) ovarian carcinomas, 786-O (RRID:CVCL_1051) and A498 (RRID:CVCL_A498) renal cell carcinoma, NCI-H211 (ATCC, cat. CRL-5824; RRID:CVCL_1529), NCI-H196 (ATCC, cat. CRL-5823, RRID:CVCL_1509), SW 1271 (ATCC, cat. CRL-2177, RRID:CVCL_1716) and NCI-H1876 (ATCC, cat. CRL-5902, RRID:CVCL_1503) small cell lung carcinomas, MDA-MB-231 (RRID:CVCL_0062) and MDA-MB-468 (RRID:CVCL_0419)breast carcinomas (10-12). Pooled donor human umbilical vein endothelial cells (HUVEC, Lonza, cat. CC-2519) and human mesenchymal stem cells (hMSC, Lonza, cat. PT-2501) were purchased from Lonza (Walkersville, MD).
Cell Culture. All cells were maintained in an incubator at 37 degrees C and 5% CO2 with 95% humidity. The PDC lines were cultured according to standard operating procedures established by the NCI PDMR (https://pdmr.cancer.gov). Briefly all PDCs were thawed and cultured in Matrigel-coated flasks prepared with a working solution of 1X Ham's F-12 nutrient mix, without supplementation (Invitrogen, Waltham, MA, cat. 11765054), 100 U/mL penicillin-streptomycin (Invitrogen, cat. 15140122), and 2.5% Matrigel (Corning Inc., Corning, NY, cat. 354248) for the first three passages. […]

[1] = curve of first compound, second compound 0.1 µM
[2] = curve of first compound, second compound 0.316 µM
[3] = curve of first compound, second compound 1 µM
[4] = curve of first compound, second compound 3.16 µM
[5] = curve of first compound, second compound 10 µM
[6] = second compound 0.1 µM, first compound 0.00316 µM
[7] = second compound 0.1 µM, first compound 0.01 µM
[8] = second compound 0.1 µM, first compound 0.0316 µM
[9] = second compound 0.1 µM, first compound 0.1 µM
[10] = second compound 0.316 µM, first compound 0.00316 µM
[11] = second compound 0.316 µM, first compound 0.01 µM
[12] = second compound 0.316 µM, first compound 0.0316 µM
[13] = second compound 0.316 µM, first compound 0.1 µM
[14] = second compound 1 µM, first compound 0.00316 µM
[15] = second compound 1 µM, first compound 0.01 µM
[16] = second compound 1 µM, first compound 0.0316 µM
[17] = second compound 1 µM, first compound 0.1 µM
[18] = second compound 3.16 µM, first compound 0.00316 µM
[19] = second compound 3.16 µM, first compound 0.01 µM
[20] = second compound 3.16 µM, first compound 0.0316 µM
[21] = second compound 3.16 µM, first compound 0.1 µM
[22] = second compound 10 µM, first compound 0.00316 µM
[23] = second compound 10 µM, first compound 0.01 µM
[24] = second compound 10 µM, first compound 0.0316 µM
[25] = second compound 10 µM, first compound 0.1 µM
[26] = second compound 0.1 µM, first compound 0.316 µM
[27] = second compound 0.1 µM, first compound 1 µM
[28] = second compound 0.1 µM, first compound 3.16 µM
[29] = second compound 0.1 µM, first compound 10 µM
[30] = second compound 0.316 µM, first compound 0.316 µM
[31] = second compound 0.316 µM, first compound 1 µM
[32] = second compound 0.316 µM, first compound 3.16 µM
[33] = second compound 0.316 µM, first compound 10 µM
[34] = second compound 1 µM, first compound 0.316 µM
[35] = second compound 1 µM, first compound 1 µM
[36] = second compound 1 µM, first compound 3.16 µM
[37] = second compound 1 µM, first compound 10 µM
[38] = second compound 3.16 µM, first compound 0.316 µM
[39] = second compound 3.16 µM, first compound 1 µM
[40] = second compound 3.16 µM, first compound 3.16 µM
[41] = second compound 3.16 µM, first compound 10 µM
[42] = second compound 10 µM, first compound 0.316 µM
[43] = second compound 10 µM, first compound 1 µM
[44] = second compound 10 µM, first compound 3.16 µM
[45] = second compound 10 µM, first compound 10 µM
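Also: spheroids exposed to agents for 7 days after 3 days growth.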

Row | Structure (SMILES) | IC50 [1] | IC50 [2] | IC50 [3] | IC50 [4] | IC50 [5] | viability, T/C [8] | viability, T/C [9] | viability, T/C [12] | viability, T/C [13] | viability, T/C [16] | viability, T/C [17] | viability, T/C [20] | viability, T/C [21] | viability, T/C [24] | viability, T/C [25] | viability, T/C [26] | viability, T/C [27] | viability, T/C [30] | viability, T/C [31] | viability, T/C [34] | other results
1 | CC(C)CC(NC(=O)C(Cc1ccccc1)NC(=O)c1cnccn1)B(O)O (configuration not stated) + NC1CCC(NC2CC2c2ccccc2)CC1 | < 0.000316 µM | < 0.000316 µM | < 0.000316 µM | < 0.000316 µM | < 0.000316 µM | 0.06% | 0.11% | 0.09% | 0.14% | 0.03% | 2.22% | 0.04% | 1.61% | 0.09% | 0.37% |  |  |  |  |  | viability, T/C (second compound 0.1 µM, first compound 0.000316 µM): 9.27%; viability, T/C (second compound 0.1 µM, first compound 0.001 µM): 1.3%; viability, T/C [6]: 3.65%; viability, T/C [7]: 0.1%; viability, T/C (second compound 0.316 µM, first compound 0.000316 µM): 8.56%; viability, T/C (second compound 0.316 µM, first compound 0.001 µM): 1.25%; viability, T/C [10]: 0.38%; viability, T/C [11]: 0.1%; viability, T/C (second compound 1 µM, first compound 0.000316 µM): 10.1%; viability, T/C (second compound 1 µM, first compound 0.001 µM): 1.4%; viability, T/C [14]: 0.35%; viability, T/C [15]: 0.2%; viability, T/C (second compound 3.16 µM, first compound 0.000316 µM): 9.75%; viability, T/C (second compound 3.16 µM, first compound 0.001 µM): 3.48%; viability, T/C [18]: 0.44%; viability, T/C [19]: 0.14%; viability, T/C (second compound 10 µM, first compound 0.000316 µM): 5.79%; viability, T/C (second compound 10 µM, first compound 0.001 µM): 0.65%; viability, T/C [22]: 0.32%; viability, T/C [23]: 0.23%
2 | O=C(c1cc(Cc2n[nH]c(=O)c3ccccc23)ccc1F)N1CCN(C(=O)C2CC2)CC1 + NC1CC1c1ccc(-c2cccc(O)c2)cc1 | 3.7 µM | 4.09 µM | 4.23 µM | 4.4 µM | 3.09 µM | 90.8% | 106% | 101% | 104% | 106% | 105% | 102% | 105% | 85.7% | 84.2% | 98.7% | 88.5% | 101% | 88% | 102% | viability, T/C [28]: 54.5%; viability, T/C [29]: 22.7%; viability, T/C [32]: 57.8%; viability, T/C [33]: 23.7%; viability, T/C [35]: 89.5%; viability, T/C [36]: 58.9%; viability, T/C [37]: 24%; viability, T/C [38]: 101%; viability, T/C [39]: 87%; viability, T/C [40]: 61%; viability, T/C [41]: 23.7%; viability, T/C [42]: 83.4%; viability, T/C [43]: 74%; viability, T/C [44]: 49.6%; viability, T/C [45]: 18.9%
3 | CC1COCCN1c1cc(C2(S(C)(=N)=O)CC2)nc(-c2ccnc3[nH]ccc23)n1 (configuration not stated) |  |  |  |  |  |  |  |  |  |  |  |  |  |  |  |  |  |  |  |  | viability, T/C (compound 0.0316 µM): 94.6% and 94.9%; viability, T/C (compound 0.1 µM): 89.5% and 95.9%; viability, T/C (compound 0.316 µM): 98.2% and 91.3%; viability, T/C (compound 1 µM): 73% and 58.9%; viability, T/C (compound 3.16 µM): 17.2% and 21.2%; viability, T/C (compound 10 µM): 8.54% and 9.3%; IC50 (curve of compound): 1.61 µM and 1.33 µM
4 | CC(C)c1c(-c2ccccc2)nc2c(C#N)c[nH]n2c1=O + NC1CC1c1ccc(-c2cccc(O)c2)cc1 | 4.99 µM | 5.4 µM | 5.36 µM | 5.45 µM | 4.95 µM | 104% | 103% | 102% | 102% | 108% | 101% | 103% | 98.6% | 85.7% | 81.9% | 93% | 87.3% | 95.8% | 90.4% | 93.9% | viability, T/C [28]: 72.1%; viability, T/C [29]: 19.8%; viability, T/C [32]: 75.5%; viability, T/C [33]: 22.1%; viability, T/C [35]: 89.5%; viability, T/C [36]: 75.7%; viability, T/C [37]: 22.5%; viability, T/C [38]: 97%; viability, T/C [39]: 87.4%; viability, T/C [40]: 77.1%; viability, T/C [41]: 22%; viability, T/C [42]: 81.4%; viability, T/C [43]: 80.5%; viability, T/C [44]: 70.6%; viability, T/C [45]: 18.1%
5 | Nc1ncn(C2CC(O)C(CO)O2)c(=O)n1 (configuration not stated) + NC1CC1c1ccc(-c2cccc(O)c2)cc1 | > 1 µM | > 1 µM | > 1 µM | > 1 µM | > 1 µM | 97.7% | 88.4% | 95.1% | 96.2% | 95% | 96.3% | 95.8% | 96% | 81.4% | 81% | 93.8% | 85.1% | 90.8% | 90.4% | 92.6% | viability, T/C [6]: 102%; viability, T/C [7]: 98.4%; viability, T/C [10]: 102%; viability, T/C [11]: 98.6%; viability, T/C [14]: 106%; viability, T/C [15]: 102%; viability, T/C [35]: 85.1%; viability, T/C [18]: 102%; viability, T/C [19]: 96%; viability, T/C [38]: 87%; viability, T/C [39]: 82.1%; viability, T/C [22]: 82.4%; viability, T/C [23]: 80.6%; viability, T/C [42]: 80%; viability, T/C [43]: 74.8%
